The source made the active and inactive calls. No cut-off for these calls is given here.

The nature of data set [1]: Aqueous solubility of the compound […] at room temperature by UV-vis spectrophotometric analysis. Format: physicochemical.
For data set [2], the target named is T1, Protein deacetylase HDAC6 (Homo sapiens) (UniProt Q9UBN7).
T1 sequence (whole entry): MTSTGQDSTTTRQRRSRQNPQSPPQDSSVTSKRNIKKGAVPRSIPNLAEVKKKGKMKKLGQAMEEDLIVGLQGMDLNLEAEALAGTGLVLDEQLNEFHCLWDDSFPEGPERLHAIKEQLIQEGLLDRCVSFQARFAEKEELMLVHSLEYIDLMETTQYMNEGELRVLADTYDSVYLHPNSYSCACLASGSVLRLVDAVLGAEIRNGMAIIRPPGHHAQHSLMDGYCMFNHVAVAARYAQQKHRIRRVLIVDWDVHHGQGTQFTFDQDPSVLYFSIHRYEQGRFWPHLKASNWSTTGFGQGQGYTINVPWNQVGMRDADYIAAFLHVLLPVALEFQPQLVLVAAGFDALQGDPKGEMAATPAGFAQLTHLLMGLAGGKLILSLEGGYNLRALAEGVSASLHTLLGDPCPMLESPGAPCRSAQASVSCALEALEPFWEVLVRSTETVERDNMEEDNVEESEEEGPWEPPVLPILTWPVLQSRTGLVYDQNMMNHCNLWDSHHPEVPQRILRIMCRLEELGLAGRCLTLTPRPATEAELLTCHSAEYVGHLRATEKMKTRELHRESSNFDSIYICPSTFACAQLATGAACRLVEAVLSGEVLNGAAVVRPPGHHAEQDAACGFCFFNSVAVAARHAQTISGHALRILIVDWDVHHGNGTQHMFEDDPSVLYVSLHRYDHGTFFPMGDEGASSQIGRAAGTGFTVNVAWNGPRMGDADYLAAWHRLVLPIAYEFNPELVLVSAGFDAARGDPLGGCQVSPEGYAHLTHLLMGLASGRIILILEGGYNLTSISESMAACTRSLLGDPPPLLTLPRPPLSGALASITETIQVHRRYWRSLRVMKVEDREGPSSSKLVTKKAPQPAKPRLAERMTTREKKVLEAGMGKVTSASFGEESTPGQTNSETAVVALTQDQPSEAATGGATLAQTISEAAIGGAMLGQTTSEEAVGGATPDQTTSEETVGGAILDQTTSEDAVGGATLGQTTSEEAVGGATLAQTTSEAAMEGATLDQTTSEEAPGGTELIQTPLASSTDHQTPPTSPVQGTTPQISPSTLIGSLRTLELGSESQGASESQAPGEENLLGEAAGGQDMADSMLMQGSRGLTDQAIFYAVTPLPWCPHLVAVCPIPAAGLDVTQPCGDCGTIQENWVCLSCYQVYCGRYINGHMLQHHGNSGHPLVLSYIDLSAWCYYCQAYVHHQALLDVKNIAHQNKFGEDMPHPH
The data set can be described thus: Inhibition of HDAC6 in human LNCAP cells assessed as increase in tubulin acetylation at 3.49 to 20 uM after 4 hrs by Western blotting analysis. It counts as cell-based.

The target of data set [3] is Histone deacetylase 2 (Homo sapiens, UniProt Q92769). The data set can be described thus: Inhibition of HDAC2 (unknown origin) expressed in Escherichia coli BL21 (DE3) using GRKacYGC as substrate after 60 mins by SAMDI mass spectrometric analysis.
Chain of Histone deacetylase 2 (Q92769 whole entry): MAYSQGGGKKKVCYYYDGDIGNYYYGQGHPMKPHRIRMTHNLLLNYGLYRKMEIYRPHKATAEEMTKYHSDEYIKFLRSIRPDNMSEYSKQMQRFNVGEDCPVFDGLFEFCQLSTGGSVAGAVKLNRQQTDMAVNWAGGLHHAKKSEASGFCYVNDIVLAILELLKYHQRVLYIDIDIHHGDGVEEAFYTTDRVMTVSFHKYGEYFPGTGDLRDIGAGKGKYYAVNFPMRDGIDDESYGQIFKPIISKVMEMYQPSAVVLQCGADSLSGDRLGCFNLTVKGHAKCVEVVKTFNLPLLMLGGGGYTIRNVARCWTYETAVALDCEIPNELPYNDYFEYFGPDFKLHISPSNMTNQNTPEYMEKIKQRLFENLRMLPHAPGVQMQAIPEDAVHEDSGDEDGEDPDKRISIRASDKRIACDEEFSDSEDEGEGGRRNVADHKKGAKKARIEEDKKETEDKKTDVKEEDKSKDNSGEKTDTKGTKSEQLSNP
For data set [4], the target named is Collagenase 3 (Homo sapiens) (UniProt P45452). The data set can be described thus: Inhibition of MMP-13 (unknown origin) using omniMMP as fluorogenic substrate at 10 uM preincubated for 30 mins followed by substrate addition measured after 30 mins by fluorescence assay.
Data set [5] concerns the target Matrix metalloproteinase-14 (Homo sapiens) (UniProt P50281). The data set can be described thus: Inhibition of MMP-14 (unknown origin) using omniMMP as fluorogenic substrate at 10 uM preincubated for 30 mins followed by substrate addition measured after 30 mins by fluorescence assay.
The target of data set [6] is Matrix metalloproteinase-9 (Homo sapiens) (UniProt P14780). Nature of the data set: Inhibition of MMP-9 (unknown origin) using omniMMP as fluorogenic substrate at 10 uM preincubated for 30 mins followed by substrate addition measured after 30 mins by fluorescence assay.
Chain of Matrix metalloproteinase-9 (Homo sapiens) (P14780 whole entry): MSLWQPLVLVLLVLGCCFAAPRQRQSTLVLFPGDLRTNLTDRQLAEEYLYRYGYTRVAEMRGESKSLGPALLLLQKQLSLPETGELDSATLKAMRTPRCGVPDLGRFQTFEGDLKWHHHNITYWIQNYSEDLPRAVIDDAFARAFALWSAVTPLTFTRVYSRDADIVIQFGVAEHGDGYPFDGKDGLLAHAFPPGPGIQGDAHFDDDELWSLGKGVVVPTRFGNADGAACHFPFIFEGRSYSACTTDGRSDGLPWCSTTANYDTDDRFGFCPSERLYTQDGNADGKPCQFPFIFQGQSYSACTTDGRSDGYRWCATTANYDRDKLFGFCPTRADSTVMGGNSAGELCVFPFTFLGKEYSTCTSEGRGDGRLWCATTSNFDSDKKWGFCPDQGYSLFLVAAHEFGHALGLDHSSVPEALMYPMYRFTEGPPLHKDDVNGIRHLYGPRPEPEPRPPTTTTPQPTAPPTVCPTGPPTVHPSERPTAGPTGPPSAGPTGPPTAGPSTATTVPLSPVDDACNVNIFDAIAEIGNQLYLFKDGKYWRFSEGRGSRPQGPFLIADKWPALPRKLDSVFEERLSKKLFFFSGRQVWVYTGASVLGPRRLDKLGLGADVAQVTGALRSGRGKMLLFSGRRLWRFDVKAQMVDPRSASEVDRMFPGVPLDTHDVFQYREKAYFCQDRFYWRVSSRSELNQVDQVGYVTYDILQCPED
The target in data set [7] is T2, Matrilysin (Homo sapiens) (UniProt P09237).
T2 sequence (whole entry): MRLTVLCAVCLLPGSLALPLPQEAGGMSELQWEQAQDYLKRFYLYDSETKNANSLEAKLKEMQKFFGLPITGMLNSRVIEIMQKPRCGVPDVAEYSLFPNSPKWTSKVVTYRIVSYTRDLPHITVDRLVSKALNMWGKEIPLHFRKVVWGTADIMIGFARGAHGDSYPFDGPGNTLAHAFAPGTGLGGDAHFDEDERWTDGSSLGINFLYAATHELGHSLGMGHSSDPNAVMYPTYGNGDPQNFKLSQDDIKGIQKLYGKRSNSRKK
The data set can be described thus: Inhibition of MMP-7 (unknown origin) using omniMMP as fluorogenic substrate at 10 uM preincubated for 30 mins followed by substrate addition measured after 30 mins by fluorescence assay.

For data set [8], the target named is Stromelysin-1 (Homo sapiens) (UniProt P08254). Nature of the data set: Inhibition of MMP-3 (unknown origin) using omniMMP as fluorogenic substrate at 10 uM preincubated for 30 mins followed by substrate addition measured after 30 mins by fluorescence assay.
Chain of Stromelysin-1 (Homo sapiens) (P08254 100-477 limits assumed): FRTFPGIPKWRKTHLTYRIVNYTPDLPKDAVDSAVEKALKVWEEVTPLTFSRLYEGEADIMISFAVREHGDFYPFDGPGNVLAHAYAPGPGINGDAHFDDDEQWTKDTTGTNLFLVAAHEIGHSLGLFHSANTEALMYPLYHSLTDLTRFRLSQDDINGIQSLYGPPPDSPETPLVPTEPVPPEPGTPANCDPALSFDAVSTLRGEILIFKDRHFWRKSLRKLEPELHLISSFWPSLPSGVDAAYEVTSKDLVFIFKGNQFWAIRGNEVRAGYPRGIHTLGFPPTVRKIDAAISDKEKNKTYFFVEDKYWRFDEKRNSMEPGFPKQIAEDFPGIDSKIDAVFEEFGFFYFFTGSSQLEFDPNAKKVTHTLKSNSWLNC
Data set [9] has as its target 72 kDa type IV collagenase (Homo sapiens) (UniProt P08253). The data set can be described thus: Inhibition of MMP-2 (unknown origin) using omniMMP as fluorogenic substrate at 10 uM preincubated for 30 mins followed by substrate addition measured after 30 mins by fluorescence assay.
In data set [10] the target is T3, Interstitial collagenase (Homo sapiens) (UniProt P03956).
T3 sequence (whole entry): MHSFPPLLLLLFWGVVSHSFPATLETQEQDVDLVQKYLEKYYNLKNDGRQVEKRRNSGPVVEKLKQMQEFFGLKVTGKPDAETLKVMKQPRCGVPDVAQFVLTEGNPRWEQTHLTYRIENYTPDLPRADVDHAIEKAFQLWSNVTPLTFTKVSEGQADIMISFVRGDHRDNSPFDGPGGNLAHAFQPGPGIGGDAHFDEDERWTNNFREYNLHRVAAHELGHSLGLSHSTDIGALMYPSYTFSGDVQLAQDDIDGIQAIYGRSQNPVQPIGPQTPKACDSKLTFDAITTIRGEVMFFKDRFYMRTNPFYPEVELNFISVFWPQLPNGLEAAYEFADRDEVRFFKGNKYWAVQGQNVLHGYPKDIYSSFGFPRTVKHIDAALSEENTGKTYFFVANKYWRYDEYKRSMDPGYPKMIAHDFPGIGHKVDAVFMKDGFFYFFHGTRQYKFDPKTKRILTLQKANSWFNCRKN
Nature of the data set: Inhibition of MMP-1 (unknown origin) using omniMMP as fluorogenic substrate at 10 uM preincubated for 30 mins followed by substrate addition measured after 30 mins by fluorescence assay.

In data set [11] the test system is LNCaP. The data set can be described thus: Potency index, ratio of tubastatin A IC50 to compound IC50 for human LNCAP cells. Format: functional.
Data set [12] concerns Vero. Nature of the data set: Cytotoxicity against African green monkey Vero cells assessed as growth inhibition after 72 hrs by MTS assay. It counts as cell-based. The settings on record: Chlorocebus sabaeus.
Data set [13] is described as follows: Cytotoxicity against human Jurkat gamma1 cells assessed as growth inhibition after 72 hrs by MTS assay. Format: functional, cell-based.
Data set [14] deals with Jurkat. Nature of the data set: cells. It counts as functional, cell-based. The conditions noted are these: Homo sapiens, 72 h.
Description: Cytotoxicity against human Jurkat cells assessed as growth inhibition after 72 hrs by MTS assay
The subject of data set [15] is DU-145. The data set can be described thus: cells. Format: functional, cell-based. The settings on record: Homo sapiens, DU-145, 72 h.
Description: Cytotoxicity against androgen-independent human DU145 cells assessed as growth inhibition after 72 hrs by MTS assay
Data set [16] has as its target Histone deacetylase 1 (Homo sapiens) (UniProt Q13547). The data set can be described thus: Inhibition of HDAC1 (unknown origin) expressed in Escherichia coli BL21 (DE3) using GRKacFGC as substrate at 10 uM after 60 mins by SAMDI mass spectrometric analysis relative to control.
Data set [17] relates to LNCaP. Nature of the data set: cells. The settings on record: Homo sapiens, 72 h.
Description: Cytotoxicity against androgen-dependent human LNCAP cells assessed as growth inhibition after 72 hrs by MTS assay
The target in data set [18] is T1, Protein deacetylase HDAC6 (Homo sapiens). The data set can be described thus: Inhibition of HDAC6 in human LNCAP cells assessed as increase in tubulin acetylation at 5.43 to 20 uM after 4 hrs by Western blotting analysis. Format: cell-based.
In data set [19] the target is T4, Histone deacetylase 8 (Homo sapiens, UniProt Q9BY41).
T4 sequence (Q9BY41 whole entry): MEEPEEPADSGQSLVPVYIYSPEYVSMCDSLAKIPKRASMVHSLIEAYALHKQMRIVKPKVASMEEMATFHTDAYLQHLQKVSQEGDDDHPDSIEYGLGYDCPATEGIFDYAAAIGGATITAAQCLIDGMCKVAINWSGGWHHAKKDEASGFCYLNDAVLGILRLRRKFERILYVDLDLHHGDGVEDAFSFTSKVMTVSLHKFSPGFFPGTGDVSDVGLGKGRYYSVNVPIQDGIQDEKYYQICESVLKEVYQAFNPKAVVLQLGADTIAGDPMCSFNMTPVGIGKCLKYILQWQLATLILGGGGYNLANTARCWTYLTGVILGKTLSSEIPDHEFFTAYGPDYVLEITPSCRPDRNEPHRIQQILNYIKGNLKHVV
Nature of the data set: Inhibition of HDAC8 catalytic domain (unknown origin) expressed in Escherichia coli BL21 (DE3) using GRKacFGC as substrate after 60 mins by SAMDI mass spectrometric analysis.

For data set [20], the target named is T5, Protein deacetylase HDAC6 (Homo sapiens, UniProt Q9UBN7).
T5 sequence (Q9UBN7 whole entry): T1 sequence (whole entry)
Nature of the data set: Inhibition of HDAC6 (unknown origin) expressed in Escherichia coli BL21 (DE3) using GRKacYGC as substrate after 60 mins by SAMDI mass spectrometric analysis.

Chain of 72 kDa type IV collagenase (Homo sapiens) (P08253 110-660 limits assumed): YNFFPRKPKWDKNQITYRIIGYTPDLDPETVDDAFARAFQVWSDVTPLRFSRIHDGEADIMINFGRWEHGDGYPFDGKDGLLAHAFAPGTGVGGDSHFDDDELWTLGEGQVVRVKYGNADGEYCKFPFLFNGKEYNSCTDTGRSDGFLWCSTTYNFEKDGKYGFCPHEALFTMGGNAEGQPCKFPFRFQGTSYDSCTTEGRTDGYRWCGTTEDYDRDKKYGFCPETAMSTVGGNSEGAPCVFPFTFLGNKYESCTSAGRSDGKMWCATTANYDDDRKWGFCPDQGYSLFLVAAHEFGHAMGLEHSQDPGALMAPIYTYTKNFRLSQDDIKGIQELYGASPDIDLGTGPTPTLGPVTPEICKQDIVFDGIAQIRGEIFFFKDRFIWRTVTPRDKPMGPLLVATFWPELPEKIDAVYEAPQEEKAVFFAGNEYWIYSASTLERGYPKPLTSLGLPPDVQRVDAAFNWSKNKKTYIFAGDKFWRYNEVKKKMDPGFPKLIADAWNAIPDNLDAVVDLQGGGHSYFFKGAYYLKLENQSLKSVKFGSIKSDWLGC
Chain of Histone deacetylase 1 (Homo sapiens) (Q13547 whole entry): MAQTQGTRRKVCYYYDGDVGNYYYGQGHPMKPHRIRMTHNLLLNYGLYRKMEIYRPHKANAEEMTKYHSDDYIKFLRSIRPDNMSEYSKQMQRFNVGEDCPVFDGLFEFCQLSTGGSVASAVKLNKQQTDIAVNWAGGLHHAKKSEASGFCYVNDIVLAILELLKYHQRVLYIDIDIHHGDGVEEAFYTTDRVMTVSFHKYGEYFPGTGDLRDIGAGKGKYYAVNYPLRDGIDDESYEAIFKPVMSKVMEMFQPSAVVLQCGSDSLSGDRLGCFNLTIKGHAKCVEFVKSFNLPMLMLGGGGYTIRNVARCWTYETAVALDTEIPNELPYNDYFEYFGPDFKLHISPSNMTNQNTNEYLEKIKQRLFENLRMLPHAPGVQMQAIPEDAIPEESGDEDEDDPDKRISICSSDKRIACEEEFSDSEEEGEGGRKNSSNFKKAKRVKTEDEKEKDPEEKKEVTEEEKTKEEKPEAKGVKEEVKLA

A word on the inhibition: it is the percentage by which the read-out fell short of the control. The IC50 is the point on the concentration scale where inhibition reaches its midpoint. With `N#Cc1cccc(-c2cn(CCCCCn3cccc(O)c3=S)nn2)c1`, in data set [1], the solubility result is recorded as “soluble”. In addition, the inhibition entry in data set [2] and in data set [4] was “Active” throughout. Besides, the IC50 was 3.68 µM in data set [3]; over 20 µM in [12]; 0.9 µM in data set [13]; 3.44 µM in [14]; 5.03 µM in data set [15]; 3.49 µM in data set [17]. Further, the inhibition entry in data set [5], in [6], in data set [7], in data set [8], in [9] and in [10] was “inactive” throughout. The Ratio IC50 in data set [11] worked out at 3.1. For the same molecule, the inhibition in data set [16] is under 20%.

For the molecule `Oc1cccn(CCCCCn2cc(-c3ccccc3)nn2)c1=S`, the solubility result in [1] is recorded as “soluble”. For the same molecule, the inhibition entry in data set [18] and in data set [4] was “Active” throughout. The IC50 in [3] was 5.84 µM; in data set [12] it was over 20 µM; in data set [13], 1.86 µM; in data set [14] it was 3.27 µM; in [15], 9.33 µM; in [19], 0.917 µM. The IC50 in data set [20] worked out at 0.911 µM; in data set [17], 5.43 µM. Besides, the inhibition entry in data set [5], in [6], in [7], in data set [8], in data set [9] and in data set [10] was “inactive” throughout. Also, the “Ratio IC50” value in [11] turned out to be 2. Moreover, the inhibition in data set [16] was under 20%.

For the origin of these results see ChEMBL document CHEMBL3108745, “Synthesis and structure-activity relationship of 3-hydroxypyridine-2-thione-based histone deacetylase inhibitors” (J Med Chem, 2013).
